B1: CueO (Escherichia coli K-12) (protein)
chain: AERPTLPIPDLLTTDARNRIQLTIGAGQSTFGGKTATTWGYNGNLLGPAVKLQRGKAVTVDIYNQLTEETTLHWHGLEVPGEVDGGPQGIIPPGGKRSVTLNVDQPAATCWFHPHQHGKTGRQVAMGLAGLVVIEDDEILKLMLPKQWGIDDVPVIVQDKKFSADGQIDYQLDVMTAAVGWFGDTLLTNGAIYPQHAAPRGWLRLRLLNGCNARSLNFATSDNRPLYVIASDGGLLPEPVKVSELPVLMGERFEVLVEVNDNKPFDLVTLPVSQMGMAIAPFDKPHPVMRIQPIAISASGALPDTLSSLPALPSLEGLTVRKLQLSMDPMLDMMGMQMLMEKYGDQAMAGMDHSQMMGHMGHGNMNHMNHGGKFDFHHANKINGQAFDMNKPMFAAAKGQYERWVISGVGDMMLHPFHIHGTQFRILSENGKPPAAHRAGWKDTVKVEGNVSEVLVKFNHDAPKEHAYMAHCHLLEHEDTGMMLGFTV
notes: codon-optimised synthetic gene in pET21a(+), E. coli T7 Shuffle, Ni-NTA purified; 50-60 kDa

How the values were obtained:
Settings in all cases: 0.1 M acetate buffer pH 4, 25 °C, 30 min
[1] = system: ItL-03
[2] = system: ItL-02
[3] = system: ItL-01
[4] = substrate: CCn1c(=NN=c2sc3cc(S(=O)(=O)O)ccc3n2CC)sc2cc(S(=O)(=O)O)ccc21; experiment: purified protein; type: biochemical, Escherichia coli

Molecule	Km [1]	Km [2]	Km [3]	Km [4]	kcat [4]
CCn1c(=NN=c2sc3cc(S(=O)(=O)O)ccc3n2CC)sc2cc(S(=O)(=O)O)ccc21 [ABTS, 2,2′-azino-bis(3-ethylbenzothiazoline-6-sulfonic acid)]	7.76 mM	3.64 ± 0.26 mM	4.5 ± 1.42 mM		
B1				2.39 ± 0.23 mM	0.0045 ± 0.0005 s⁻¹

Source: article PMC12615385, “A combined chemo-enzymatic treatment for the oxidation of epoxy-based carbon fiber-reinforced polymers (CFRPs)” (Frontiers in Bioengineering and Biotechnology, 2025)
